Where two headings read alike, the source gives them in different places.
Columns and labels:
HSF = HSF activation, luciferase reporter controlled by the human hsp70 promoter in HeLa cell clone 13B; type: cell-based; conditions: read-out: HSF AC200/μM
Experimental: (§1) HeLa cell clone 13B, stably transfected with a luciferase reporter plasmid controlled by the human hsp70 promoter, and HeLa κB-transformed cells, stably transfected with a luciferase reporter plasmid controlled by a synthetic NF-κB-STM construct, were maintained in DMEM medium supplemented with 10% FBS, L-glutamine (2 mM) and G418 (250 μg/ml) at 37° C. in a 5% CO2 humidified atmosphere.
(§2) Cells were seeded at a density of 4×10^4 cells/well in 96-well plates. After 18–20 h, the medium was removed and cells were treated for 8 h with the test compounds (100 μl) at the appropriate dilutions in serum-free medium. For the NF-κB-dependent reporter gene assay, cells were stimulated with TPA (25 ng/ml) 2 h after exposure to the compounds.
(§3) After incubation, the medium was removed and cells were lysed in 10 μl of lysis buffer. The luciferase activity was determined by adding 100 μl of substrate and measuring the release of light using a Victor 1420 microplate reader (Wallac, Finland).
(§4) The AC200/μM for HSF is the concentration at which the tested compound doubled the HSF activity in this assay. The IC50/μM for NF-κB is the concentration at which the tested compound halved the NF-κB activity in this assay. […] The LC50/μM is the concentration at which the tested compound killed half the cells in each assay. […] (n.d. means not done)

NF-κB = test: NF-κB-dependent luciferase reporter gene assay in HeLa κB-transformed cells stimulated with TPA; type: cell-based, human
Experimental: as §1, §2, §3
The fragment Kpn I-BamH I from the pGL3 basic vector containing the luciferase gene (PROMEGA) was inserted in the pcDNA3 vector (INVITROGEN) digested with Bgl II-KpnI. (This digestion removes the CMV-promoter from pcDNA3.) The resulting new vector was digested with Kpn I-Hind III and a promoter containing a ‘5×NF-κB binding sites-TATA box’ sequence was inserted upstream of the luciferase gene. This vector has been named STM.
To obtain stable HeLa cell lines expressing the luciferase gene under the control of NF-κB, HeLa cells were transfected (using lipofectamine plus GIBCO) with the STM-Pvu I linearized vector, and selected for 20 days with G418 (800 μg/ml). After selection, the resistant HeLa cell pool was controlled (in quadruplicate samples) for luciferase activity after stimulation with TNFα, IL-1 and TPA.
as §4

HeLa cells [1] = test: in vitro; type: cell-based; conditions: human, 8 h
Experimental: HeLa cells were plated in 96-well microtiter plates in 100 μl culture medium (4×10^4/well). After 20 hours, the cells were exposed to the test compounds at different dilutions and incubated for the next 8 h at 37° C. in a 5% CO2 humidified atmosphere. After 6 h incubation, the Alamar Blue was added in an amount equal to 10% of the culture volume (10 μl). Two hours after the addition of the Alamar Blue, the fluorescence was measured using a Victor 1420 microplate reader.

Sendai virus = test: Replication of Sendai virus in 37RC cells, virus yield by haemagglutinin titration; type: cell-based; conditions: Respirovirus muris, read-out: ID50/μM
Experimental: Monkey kidney 37RC cells were grown at 37° C. in RPMI medium supplemented with 5% foetal bovine serum (FBS), L-glutarine (2 mM) and antibiotics. Sendai virus was grown in the allantoic cavity of 10-day-old embryonated eggs. Viral titre was expressed in haemagglutinating units (HAU) per ml; haemagglutinin titration was done according to standard procedures, as described in C. Amici et al. (J. Virol. 68: 6890–6899, 1994). […] Confluent 37RC monolayers were infected with Sendai Virus (5 HAU/ml) for 1 h at 37° C. After 1 hour incubation, viral inoculum was removed and cells were treated with the test compounds at different concentrations. Virus yields were determined 24 h post infection by haemagglutinin titration. Mock-infected cells were treated identically and processed for cytotoxicity assay (Neutral Red assay) at the same time (see below). The results were expressed as HAU/ml (each point represents the mean of duplicate samples).

Monkey kidney 37RC cells = type: cell-based; conditions: concentration 100% toxic to uninfected 37RC cells, visually by microscopy
in vitro [2] = type: cell-based; conditions: monkey, 50% lethal dose/concentration, neutral red assay, 37RC cells, read-out: LC50/μM
Experimental: Cell viability was determined using the Neutral Red assay.

in vitro [3] = test: in vitro
Experimental: (§5) This assay was carried out on HeLa cells using a technique analogous to that described below in Example 36(b) for Monkey Kidney 37RC cells.
as §4
(§6) Cell viability was determined using the Neutral Red assay. 37RC cells were seeded at density of 6×10^4 cells/well in 24-well plates and incubated for 24 h. Confluent 37RC monolayers were treated with the test compounds at different dilutions for 24 h at 37° C. After incubation, the medium was removed and the cells were incubated with RPMI medium containing 40 μg/ml Neutral Red dye (500 μl/well). After 2 h at 37° C., the monolayers were washed with phosphate-buffered saline (PBS) and then with a solution containing 1% CaCl2 and 0.5% formaldehyde. After washing, a solution containing 1% acetic acid/50% ethanol was added to the monolayers (250 μl/well). After 10 min at room temperature, the absorbance was determined with a microplate reader (Victor 1420, Wallac) at 540 nm.

HeLa cells [4] = test: in vitro; conditions: read-out: Toxicity Neutral Red LC50/μM; HeLa cells; concentration that killed half the cells
Experimental: as §5, §4, §6

[5] = Homo sapiens, concentration at which the compound doubled HSF activity, HeLa clone 13B, 8 h treatment
[6] = Homo sapiens, concentration that halved NF-κB activity, HeLa reporter cells, TPA 25 ng/ml, 8 h treatment
[7] = 50% inhibitory dose/concentration at 24 hours, Sendai virus in 37RC cells

Row | Molecule | EC (2-fold HSF activity) (HSF; [5]) [µM] | IC50 (NF-κB; [6]) [µM] | CC50 (HeLa cells [1]) [µM] | IC50 (Sendai virus; [7]) [µM] | TD100/μM (Monkey kidney 37RC cells) [µM] | further results
1 | CC(C)/C=C1/C(=O)C=CC1NC(=O)OC(C)(C)C (stereo not shown) [CTC-121, (5-iso-Butylidene-4-oxocyclopent-2-enyl)-carbamic acid tert-butyl ester] | 2.8 | 4.7 | > 800 | 1 | 50 | CC50 at 24 h (in vitro [2]): 4 µM
2 | CCCCC1C=CC(=O)/C1=C/CC(C)C (stereo not shown) [CTC-122] | 13 | 12 | 227 | 0.3 | 50 | 
3 | CC(C)(C)OC(=O)NC1C=CC(=O)C1 (stereo not shown) [CTC-132, (4-Oxocyclopent-2-enyl)-carbamic acid tert-butyl ester] | 51 | 52 | > 800 | 20 | 100 | 
4 | CCCCC1C=CC(=O)/C1=C/C(C)C (stereo not shown) [CTC-145] | 13 | 38 | 506 | 0.3 | 10 | 
5 | CC1C=CC(=O)/C1=C/c1ccccc1 (stereo not shown) [CTC-150, 4-Methyl-5-[1-phenyl-meth-(E)-ylidene]-cyclopent-2-enone] | 3 | 7 | 314 | 0.9 | 50 | 
6 | CC(C)/C=C1/C(=O)C=CC1C (stereo not shown) [CTC-154] | 13 | 14 | > 800 |  |  | 
7 | CCCCCC/C=C1/C(=O)C=CC1C (stereo not shown) [CTC-162] | < 6.2 | < 6.2 | 234 |  |  | 
8 | CCCCC/C=C1/C(=O)C=CC1C (stereo not shown) [CTC-164] | > 100 | 40 | > 800 |  |  | 
9 | O=C1C=CC(NC(=O)c2ccccc2)C1 (stereo not shown) [CTC-171, N-(4-Oxocyclopent-2-enyl)-benzamide] | 51 | 38 | > 800 | 20 | 100 | CC50 at 24 h (in vitro [2]): 59 µM
10 | CCCCC1C=CC(=O)/C1=C/C1CC1 (stereo not shown) [CTC-177] | 8 | 14 | 239 |  |  | 
11 | CC(C)/C=C1/C(=O)C=C[C@H]1NC(=O)OC(C)(C)C [CTC-195, (2R)-(5-iso-Butylidene-4-oxocyclopent-2-enyl)-carbamic acid tert-butyl ester] | 5 | 6.6 | > 800 | 0.4 | 10 | CC50 at 24 h (in vitro [2]): 4 µM
12 | CC(C)/C=C1/C(=O)C=C[C@@H]1NC(=O)OC(C)(C)C [CTC-199, (2S)-(5-iso-Butylidene-4-oxocyclopent-2-enyl)-carbamic acid tert-butyl ester] | 1.8 | 5 | > 800 | 1 | 50 | CC50 at 24 h (in vitro [2]): 4 µM
13 | CC(C)(C)OC(=O)NC1C=CC(=O)/C1=C/c1ccc(Cl)cc1 (stereo not shown) [CTC-247, [(E)-5-(4-Chloro-benzylidene)-4-oxo-cyclopent-2-enyl]-carbamic acid tert-butyl ester] | 2 | 9 | > 800 | 0.6 | 10 | CC50 at 24 h (in vitro [3]; human): 72 µM; CC50 at 24 h (in vitro [2]): 3.4 µM
14 | CC(C)(C)OC(=O)NC1C=CC(=O)/C1=C/c1ccccc1 (stereo not shown) [CTC-248, ((E)-5-Benzylidene-4-oxo-cyclopent-2-enyl)-carbamic acid tert-butyl ester] | 1.8 | 4 | > 800 |  | 10 | CC50 at 24 h (in vitro [3]; human): 33 µM; IC50 (Sendai virus; 24 h): 0.6 µM; CC50 at 24 h (in vitro [2]): 33 µM
15 | O=C1C=CC(Nc2ccccc2)C1 (stereo not shown) [CTC-252, 4-Phenylamino-cyclopent-2-one] | 27 | 57 | > 800 |  |  | 
16 | O=C1C=CC(NC(=O)Oc2ccccc2)C1 (stereo not shown) [CTC-260, (4-Oxocyclopent-2-enyl)-carbamic acid phenyl ester] | 10 | 9 |  |  |  | CC50 at 24 h (in vitro [3]): 74 µM
17 | CCOC(=O)N(C(=O)OC(C)(C)C)C1C=CC(=O)C1 (stereo not shown) [CTC-267, N-tert-Butoxycarbonyl-(4-Oxocyclopent-2-enyl)-carbamic acid ethyl ester] | 18 | 35 |  |  |  | CC50 at 24 h (in vitro [3]; human): 233 µM
18 | CCOC(=O)NC1C=CC(=O)C1 (stereo not shown) [CTC-271, (4-Oxocyclopent-2-enyl)-carbamic acid ethyl ester] | 49 | 39 |  |  |  | CC50 at 24 h (in vitro [3]; human): 104 µM
19 | Cc1cc(C)c(/C=C2/C(=O)C=C[C@@H]2NC(=O)OC(C)(C)C)c(C)c1 [CTC-285, (1S)-[4-Oxo-(E)-5-(2,4,6-trimethyl-benzylidene)-cyclopent-2-enyl]-carbamic acid tert-butyl ester] | < 6.2 | 10 |  |  |  | CC50 at 24 h (in vitro [3]; human): 25 µM
20 | O=C1C=CC(NC(=O)CCl)C1 (stereo not shown) [CTC-304, 2-Chloro-N-(4-oxo-cyclopent-2-enyl)-acetamide] | < 6.2 | < 6.2 |  |  |  | CC50 at 24 h (in vitro [3]; human): 79 µM
21 | COC(=O)[C@H](CSC1CC(=O)/C(=C/C(C)C)C1C)NC(=O)OC(C)(C)C (stereo partly shown) [CTM-126] | 18 | 21 | > 800 |  |  | 
22 | CC(C)(C)OC(=O)N[C@@H](CS[C@@H]1CC(=O)/C(=C/c2ccccc2)[C@H]1NC(=O)OC(C)(C)C)C(=O)O [CTM-228, (2R)-3-((1R,2R)-(E)-3-Benzylidene-2-tert-butoxycarbonylamino-4-oxocyclopentylsulfanyl)-2-tert-butoxycarbonylaminopropionic acid] | < 6.2 | < 6.2 |  |  |  | CC50 at 24 h (in vitro [3]; human): 25 µM
23 | COC(=O)[C@H](CS[C@@H]1CC(=O)C[C@H]1NC(=O)Oc1ccccc1)NC(=O)OC(C)(C)C [CTM-236, (R)-2-tert-Butoxycarbonylamino-3-((1R,2R)-4-oxo-2-phenoxy-carbonyl-amino-cyclopentyl-sulfanyl)-propionic acid methyl ester] |  |  |  |  |  | EC (2-fold HSF activity) (HSF; concentration at which the compound doubled HSF activity, HeLa clone 13B, 8 h treatment): 13 µM; IC50 (NF-κB; concentration that halved NF-κB activity, HeLa reporter cells, TPA 25 ng/ml, 8 h treatment): 10 µM; CC50 (HeLa cells [4]): 76 µM
24 | [(1R,2R)-2-(Naphthalen-2-ylsulfanyl)-4-oxocyclopentyl]-carbamic acid methyl ester; compound with benzene [CTM-238] |  |  |  |  |  | EC (2-fold HSF activity) (HSF): 26 µM; IC50 (NF-κB): 17 µM; CC50 (HeLa cells [4]): 113 µM

Source: patent US7183440B2, “Pharmaceutically useful compounds” (priority 2005, dated 2007)
